Data published in patent US9738628B2, “Substituted 1H-indazol-1-OL analogs as inhibitors of beta catenin/Tcf protein-protein interactions” (University of Utah Research Foundation, priority 2012, dated 2017).

Key:
[1] = tested on: HCT116 colon cancer cell line; assay: MTS-based cell proliferation inhibition assay; design: species or system human; conditions: dose-dependent (FIG. 2)
β-catenin/Tcf4 = β-catenin/Tcf4 (Homo sapiens (Human), UniProt P35222); assay: Fluorescence polarization (FP) competitive inhibition assay, β-catenin/Tcf4; type: binding; conditions: Table 2, mean ± SD (n=3)
Procedure: Experiments were performed in 96-well Microfluor 2 black plates (Waltham, Mass.), and the samples were read by a Synergy 2 plate reader (Biotek, Winooski, Vt.). […] The final reaction volume is 100 μL.

Chain of β-catenin/Tcf4 (P35222 138-686): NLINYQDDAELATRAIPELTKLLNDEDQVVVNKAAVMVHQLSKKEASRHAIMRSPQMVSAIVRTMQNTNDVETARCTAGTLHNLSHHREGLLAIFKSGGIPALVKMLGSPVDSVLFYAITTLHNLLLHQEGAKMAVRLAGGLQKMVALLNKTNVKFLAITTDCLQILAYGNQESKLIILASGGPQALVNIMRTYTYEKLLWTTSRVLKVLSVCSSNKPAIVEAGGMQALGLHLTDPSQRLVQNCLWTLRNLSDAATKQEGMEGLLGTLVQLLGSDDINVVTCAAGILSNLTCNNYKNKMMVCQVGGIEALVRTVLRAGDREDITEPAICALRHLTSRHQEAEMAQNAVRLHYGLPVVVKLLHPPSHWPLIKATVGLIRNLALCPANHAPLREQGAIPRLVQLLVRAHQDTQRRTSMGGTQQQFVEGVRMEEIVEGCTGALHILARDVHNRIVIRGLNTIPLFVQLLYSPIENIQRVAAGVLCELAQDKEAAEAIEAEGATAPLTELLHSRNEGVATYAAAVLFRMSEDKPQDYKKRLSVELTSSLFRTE

Ki (β-catenin/Tcf4) | Substance | inhibition of growth of colon cancer cell HCT116 [1]
 | 3-(2-(1-hydroxy-1H-indazol-5-yl)ethyl)-1,2,4-oxadiazole-5(4H)-thione [Compound 14] | inhibit the proliferation
125 ± 1.3 µM | 3-((1-hydroxy-1H-indazol-5-yl)methyl)-1,2,4-oxadiazol-5(4H)-one [Compound 10] | 
 | 5-(2-(2H-tetrazol-5-yl)ethyl)-1H-indazol-1-ol [Compound 12] | inhibit the proliferation
